In patent publication US8815864B2, “Indanyloxydihydrobenzofuranylacetic acids” (Boehringer Ingelheim International GmbH, priority 2012, dated 2014):

The molecules below were run against human GPR40 receptor (Homo sapiens, UniProt O14842) (assay: IP1 accumulation measurements using the IPOne assay system). Conditions: 1321N1 cells stably expressing human GPR40; stimulation 1 h at 37° C.
Assay type: cell-based
Method: IP1 accumulation measurements using the IPOne assay system—1321N1 cells stably expressing human GPR40 receptor (Euroscreen, Belgium) are seeded 24 h before the assay in white 384-well plates in culture medium containing 10% FCS, 1% Na-Pyruvate and 400 μg/mL G418. IP1 is assayed according to the manufacturer's description (Cisbio Bioassays, France). In brief, the assay is started by substitution of the culture medium by stimulation buffer (Hepes 10 mM, CaCl2 1 mM, MgCl2 0.5 mM, KCl 4.2 mM, NaCl 146 mM, glucose 5.5 mM and LiCl 50 mM, pH 7.4). Cells are stimulated for 1 h at 37° C., 5% CO2 by addition of the compounds that are diluted in stimulation buffer containing LiCl. Assays are stopped by adding HTRF-conjugates (IP1-d2 and Anti-IP1 cryptate Tb) and lysis buffer, provided by the manufacturer. After an incubation time of 1 h at room temperature plates are measured using an EnVision™, Perkin Elmer. The obtained fluorescence ratios at 665/615 […] are then used to calculate the pEC50 values using Assay Explorer 3.3 Software (Accelrys, Inc.) by interpolation using an IP1 reference curve and subsequent sigmoidal curve fitting allowing for a variable hill slope.

Sequence of human GPR40 receptor (O14842 whole entry): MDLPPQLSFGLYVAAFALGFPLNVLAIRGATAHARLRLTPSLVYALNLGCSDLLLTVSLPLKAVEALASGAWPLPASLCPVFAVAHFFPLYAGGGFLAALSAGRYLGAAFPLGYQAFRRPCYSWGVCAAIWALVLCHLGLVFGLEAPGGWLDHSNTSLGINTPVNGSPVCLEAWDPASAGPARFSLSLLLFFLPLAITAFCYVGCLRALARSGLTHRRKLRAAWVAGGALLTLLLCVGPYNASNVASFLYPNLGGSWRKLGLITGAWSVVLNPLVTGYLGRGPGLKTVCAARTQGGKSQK

SMILES | EC50 [nM]
Cn1c(Oc2ccc(F)c3c2CC[C@H]3Oc2ccc3c(c2)OC[C@H]3CC(=O)O)nc2ccccc21 [Example 13, {(S)-6-[(R)-7-Fluoro-4-(1-methyl-1H-benzoimidazol-2-yloxy)-indan-1-yloxy]-2,3-dihydro-benzofuran-3-yl}-acetic acid] | 216
Cc1cc2c(cnn2C)cc1Oc1ccc(F)c2c1CC[C@H]2Oc1ccc2c(c1)OC[C@H]2CC(=O)O [Example 47, {(S)-6-[(R)-7-Fluoro-4-(1,6-dimethyl-1H-indazol-5-yloxy)-indan-1-yloxy]-2,3-dihydro-benzofuran-3-yl}-acetic acid] | 26
N#Cc1ccccc1Oc1ccc(F)c2c1CC[C@H]2Oc1ccc2c(c1)OC[C@H]2CC(=O)O [Example 17, {(S)-6-[(R)-4-(2-Cyano-phenoxy)-7-fluoro-indan-1-yloxy]-2,3-dihydro-benzofuran-3-yl}-acetic acid] | 4
Cc1cccc(Oc2ccc(F)c3c2CC[C@H]3Oc2ccc3c(c2)OC[C@H]3CC(=O)O)n1 [Example 15, {(S)-6-[(R)-7-Fluoro-4-(6-methyl-pyrid-2-yloxy)-indan-1-yloxy]-2,3-dihydro-benzofuran-3-yl}-acetic acid] | 31
O=C(O)C[C@@H]1COc2cc(O[C@@H]3CCc4c(Oc5ccncc5)ccc(F)c43)ccc21 [Example 11, {(S)-6-[(R)-7-Fluoro-4-pyrid-4-yloxy-indan-1-yloxy]-2,3-dihydro-benzofuran-3-yl}-acetic acid] | 18
